From patent publication US20220062240A1, “METHODS OF TREATING CANCER USING A CLK INHIBITOR” (BioSplice Therapeutics, Inc., priority 2018, published 2022)
Like-named read-outs stand apart in the source and are kept apart here.

Columns and labels:
BT-549 = assay: CellTiter-Glo Viability Assay, breast cancer; assay type: cell-based; conditions: Homo sapiens, 96 h; BT-549, breast cancer, four days; read-out: EC50
CAMA1 = assay: CellTiter-Glo Viability Assay, breast cancer; assay type: cell-based; conditions: Homo sapiens, CAMA-1, 96 h; CAMA1, breast cancer, four days; read-out: EC50
DU4475 = assay: CellTiter-Glo Viability Assay, breast cancer; assay type: cell-based; conditions: Homo sapiens, DU-4475, 96 h; DU4475, breast cancer, four days; read-out: EC50
HCC1599 = assay: CellTiter-Glo Viability Assay, breast cancer; assay type: cell-based; conditions: Homo sapiens, 96 h; HCC1599, breast cancer, four days; read-out: EC50
MCF7 = assay: CellTiter-Glo Viability Assay, breast cancer; assay type: cell-based; conditions: Homo sapiens, 96 h; MCF7, breast cancer, four days; read-out: EC50
MDA-MB-231-Luc = assay: CellTiter-Glo Viability Assay, breast cancer; assay type: cell-based; conditions: Homo sapiens, 96 h; MDA-MB-231-Luc, breast cancer, four days; read-out: EC50
T47D = assay: CellTiter-Glo Viability Assay, breast cancer; assay type: cell-based; conditions: Homo sapiens, 96 h, breast cancer, four days, read-out: EC50
ZR-75-1 = assay: CellTiter-Glo Viability Assay, breast cancer; assay type: cell-based; conditions: Homo sapiens, 96 h; ZR-75-1, breast cancer, four days; read-out: EC50
all 50 cell lines = assay: CellTiter-Glo Viability Assay, average across all cell lines; assay type: cell-based; conditions: Homo sapiens; across all 50 cell lines; read-out: average EC50 for inhibition of cancer cell proliferation
Method in brief: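 Cells were plated at 300-3,000 per well in their own media, then treated with compound in duplicate, with DMSO wells as controls. After four days at 37° C and 5% CO2, CellTiter-Glo was added, and luminescence was read. EC50s were fitted.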

[1] = test system: colorectal cancer (6 cell lines); assay: CellTiter-Glo Viability Assay, colorectal cancer; assay type: cell-based; conditions: Homo sapiens, inhibition of cancer cell proliferation
[2] = test system: haematopoietic & lymphoid tumors (13 cell lines); assay: CellTiter-Glo Viability Assay, haematopoietic & lymphoid tumors; assay type: cell-based; conditions: Homo sapiens, inhibition of cancer cell proliferation
[3] = test system: liver cancer (3 cell lines); assay: CellTiter-Glo Viability Assay, liver cancer; assay type: cell-based; conditions: Homo sapiens, inhibition of cancer cell proliferation
[4] = test system: lung cancer (4 cell lines); assay: CellTiter-Glo Viability Assay, lung cancer; assay type: cell-based; conditions: Homo sapiens, inhibition of cancer cell proliferation
[5] = test system: ovarian cancer (4 cell lines); assay: CellTiter-Glo Viability Assay, ovarian cancer; assay type: cell-based; conditions: Homo sapiens, inhibition of cancer cell proliferation
[6] = test system: pancreatic cancer (8 cell lines); assay: CellTiter-Glo Viability Assay, pancreatic cancer; assay type: cell-based; conditions: Homo sapiens, inhibition of cancer cell proliferation
[7] = test system: prostate cancer (5 cell lines); assay: CellTiter-Glo Viability Assay, prostate cancer; assay type: cell-based; conditions: Homo sapiens
CLK3 = CLK3 (Homo sapiens, UniProt P49761); assay: CLK3 kinase activity assay (Z-lyte, Ser/Thr 18 peptide)
CLK2 = target: T1, CLK2 (Homo sapiens, UniProt P49760); assay: CLK2 kinase activity assay (Z-lyte, Ser/Thr 6 peptide); assay type: biochemical; conditions: recombinant CLK2 kinase, ATP 60 μM; read-out: EC50
T1 construct: purchased Thermo Fisher (Life Technologies), Z'-LYTE Kinase Assay Kits
Method: All reactions were performed in duplicate.

[8] = HCT-116, HCT116 cell line, read-out: Colorectal cancer, EC50 (μM) HCT116
[9] = HT-29, HT29 cell line, read-out: Colorectal cancer, EC50 (μM) HT29
[10] = SW-620, SW620 cell line, read-out: Colorectal cancer, EC50 (μM) SW620
[11] = DLD-1 cell line, read-out: Colorectal cancer, EC50 (μM) DLD-1
[12] = SW48 cell line, read-out: Colorectal cancer, EC50 (μM) SW48
[13] = SW480 cell line, read-out: Colorectal cancer, EC50 (μM) SW480
[14] = DND41, DND-41 cell line, read-out: Haematopoietic & Lymphoid tumors, EC50 (μM) DND-41
[15] = MV4-11, MV-4-11 cell line, read-out: Haematopoietic & Lymphoid tumors, EC50 (μM) MV-4-11
[16] = Rec1, REC-1 cell line, read-out: Haematopoietic & Lymphoid tumors, EC50 (μM) REC-1
[17] = SU-DHL-4, SUDHL4 cell line, read-out: Haematopoietic & Lymphoid tumors, EC50 (μM) SUDHL4
[18] = HL-60 cell line, read-out: Haematopoietic & Lymphoid tumors, EC50 (μM) HL-60
[19] = JM1 cell line, read-out: Haematopoietic & Lymphoid tumors, EC50 (μM) JM1
[20] = JURKAT, Clone E6-1 cell line, read-out: Haematopoietic & Lymphoid tumors, EC50 (μM) JURKAT, Clone E6-1
[21] = JeKo-1 cell line, read-out: Haematopoietic & Lymphoid tumors, EC50 (μM) JeKo-1
[22] = KASUMI-1 cell line, read-out: Haematopoietic & Lymphoid tumors, EC50 (μM) KASUMI-1
[23] = Loucy cell line, read-out: Haematopoietic & Lymphoid tumors, EC50 (μM) Loucy
[24] = MOLT-4 cell line, read-out: Haematopoietic & Lymphoid tumors, EC50 (μM) MOLT-4
[25] = TF-1 cell line, read-out: Haematopoietic & Lymphoid tumors, EC50 (μM) TF-1
[26] = TOLEDO cell line, read-out: Haematopoietic & Lymphoid tumors, EC50 (μM) TOLEDO
[27] = SNU-398, SNU398 cell line, read-out: Liver cancer, EC50 SNU398
[28] = HEPG2 cell line, read-out: Liver cancer, EC50 HEPG2
[29] = PLC/PRF/5 cell line, read-out: Liver cancer, EC50 PLC/PRF/5
[30] = A-427, A427 cell line, read-out: Lung cancer, EC50 (μM) A427
[31] = HCC78, HCC-78 cell line, read-out: Lung cancer, EC50 (μM) HCC-78
[32] = NCI-H460 cell line, read-out: Lung cancer, EC50 (μM) NCI-H460
[33] = NCI-H522 cell line, read-out: Lung cancer, EC50 (μM) NCI-H522
[34] = PA-1, PA1 cell line, read-out: Ovarian cancer, EC50 (μM) PA1
[35] = TOV112D, TOV-112D cell line, read-out: Ovarian cancer, EC50 (μM) TOV-112D
[36] = OV-90 cell line, read-out: Ovarian cancer, EC50 (μM) OV-90
[37] = OVCAR-3 cell line, read-out: Ovarian cancer, EC50 (μM) OVCAR-3
[38] = BXPC-3, BxPC3 cell line, read-out: Pancreatic cancer, EC50 BxPC3
[39] = CAPAN-1, Capan1 cell line, read-out: Pancreatic cancer, EC50 Capan1
[40] = Capan-2, Capan2 cell line, read-out: Pancreatic cancer, EC50 Capan2
[41] = MIA PaCa-2 cell line, read-out: Pancreatic cancer, EC50 MIA PaCa-2
[42] = PANC 05.04 cell line, read-out: Pancreatic cancer, EC50 PANC 05.04
[43] = PANC-1 cell line, read-out: Pancreatic cancer, EC50 PANC-1
[44] = UPAFII cell line, read-out: Pancreatic cancer, EC50 UPAFII
[45] = DU-145, read-out: Prostate cancer EC50 Du-145
[46] = PC-3, PC3 cell line, inhibition of cancer cell proliferation, read-out: Prostate cancer EC50 PC3
[47] = 22Rv1 cell line, inhibition of cancer cell proliferation, read-out: Prostate cancer EC50 22Rv1
[48] = LNCap clone FGC cell line, inhibition of cancer cell proliferation, read-out: Prostate cancer EC50 LNCap clone FGC
[49] = VCaP (Sigma) cell line, inhibition of cancer cell proliferation, read-out: Prostate cancer EC50 VCaP (Sigma)

Chain of CLK3 (P49761 whole entry): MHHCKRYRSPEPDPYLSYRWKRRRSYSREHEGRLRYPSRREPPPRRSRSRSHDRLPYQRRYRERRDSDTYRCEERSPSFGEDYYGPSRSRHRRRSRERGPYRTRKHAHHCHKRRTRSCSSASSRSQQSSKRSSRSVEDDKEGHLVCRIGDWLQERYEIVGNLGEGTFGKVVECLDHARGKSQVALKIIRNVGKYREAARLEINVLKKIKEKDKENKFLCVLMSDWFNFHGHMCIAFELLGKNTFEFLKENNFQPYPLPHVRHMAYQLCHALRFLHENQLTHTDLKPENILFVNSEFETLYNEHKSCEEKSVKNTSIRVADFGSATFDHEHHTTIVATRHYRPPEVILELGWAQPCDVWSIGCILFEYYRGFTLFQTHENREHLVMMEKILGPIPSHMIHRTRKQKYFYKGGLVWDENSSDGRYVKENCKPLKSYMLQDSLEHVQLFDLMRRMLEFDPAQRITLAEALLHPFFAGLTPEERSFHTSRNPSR
T1 sequence (P49760 whole entry): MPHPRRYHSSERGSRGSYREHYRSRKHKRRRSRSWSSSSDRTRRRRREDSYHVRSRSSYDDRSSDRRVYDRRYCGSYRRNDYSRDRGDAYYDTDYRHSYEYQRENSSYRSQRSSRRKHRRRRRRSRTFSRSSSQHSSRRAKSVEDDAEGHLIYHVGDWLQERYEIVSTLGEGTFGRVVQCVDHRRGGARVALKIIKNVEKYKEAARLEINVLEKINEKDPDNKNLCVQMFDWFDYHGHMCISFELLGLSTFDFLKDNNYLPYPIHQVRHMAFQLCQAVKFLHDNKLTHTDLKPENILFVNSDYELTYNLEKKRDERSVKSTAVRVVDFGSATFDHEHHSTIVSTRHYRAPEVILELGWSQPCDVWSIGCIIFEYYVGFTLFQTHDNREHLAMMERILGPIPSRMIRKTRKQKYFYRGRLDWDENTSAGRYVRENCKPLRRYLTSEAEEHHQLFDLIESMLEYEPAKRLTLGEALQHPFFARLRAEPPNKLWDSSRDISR

COc1ccc(NC(=O)c2n[nH]c3ccc(-c4cncc(CN5CCCCC5)c4)cc23)cn1 [Compound 59]
EC50 (BT-549): 473 nM
EC50 (CAMA1): 345 nM
EC50 (DU4475): 178 nM
EC50 (HCC1599): 286 nM
EC50 (MCF7): 853 nM
EC50 (MDA-MB-231-Luc): 636 nM
EC50 (T47D): 730 nM
EC50 (ZR-75-1): 653 nM
EC50 (all 50 cell lines): 434 nM
EC50 [1, 8]: 0.193 µM
EC50 [1, 9]: 0.666 µM
EC50 [1, 10]: 0.187 µM
EC50 [1, 11]: 0.376 µM
EC50 [1, 12]: 0.132 µM
EC50 [1, 13]: 0.353 µM
EC50 [2, 14]: 0.529 µM
EC50 [2, 15]: 0.077 µM
EC50 [2, 16]: 0.133 µM
EC50 [2, 17]: 0.525 µM
EC50 [2, 18]: 1.24 µM
EC50 [2, 19]: 0.115 µM
EC50 [2, 20]: 1.02 µM
EC50 [2, 21]: 0.141 µM
EC50 [2, 22]: 0.157 µM
EC50 [2, 23]: 0.304 µM
EC50 [2, 24]: 0.689 µM
EC50 [2, 25]: 0.41 µM
EC50 [2, 26]: 0.121 µM
EC50 [3, 27]: 161 nM
EC50 [3, 28]: 428 nM
EC50 [3, 29]: 1030 nM
EC50 [4, 30]: 0.443 µM
EC50 [4, 31]: 0.997 µM
EC50 [4, 32]: 0.32 µM
EC50 [4, 33]: 0.19 µM
EC50 [5, 34]: 0.27 µM
EC50 [5, 35]: 0.264 µM
EC50 [5, 36]: 0.936 µM
EC50 [5, 37]: 0.1 µM
EC50 [6, 38]: 1050 nM
EC50 [6, 39]: 228 nM
EC50 [6, 40]: 55 nM
EC50 [6, 41]: 175 nM
EC50 [6, 42]: 226 nM
EC50 [6, 43]: 666 nM
EC50 [6, 44]: 282 nM
EC50 [7, 45]: 563 nM
EC50 [7, 46]: 394 nM
EC50 [7, 47]: 253 nM
EC50 [7, 48]: 553 nM
EC50 [7, 49]: 612 nM
EC50 (CLK3): 61.1 nM

CN(C)CCOc1cc(C(=O)Nc2cc3cc(-c4cnn(C)c4)ccc3cn2)ccn1 [Compound 73]
EC50 (CLK2): 1.9 nM
EC50 (BT-549): 272 nM
EC50 (CAMA1): 379 nM
EC50 (DU4475): 163 nM
EC50 (HCC1599): 73 nM
EC50 (MCF7): 914 nM
EC50 (MDA-MB-231-Luc): 374 nM
EC50 (T47D): 534 nM
EC50 (ZR-75-1): 467 nM
EC50 (all 50 cell lines): 306 nM
EC50 [1, 8]: 0.155 µM
EC50 [1, 9]: 0.385 µM
EC50 [1, 10]: 0.13 µM
EC50 [1, 11]: 0.241 µM
EC50 [1, 12]: 0.105 µM
EC50 [1, 13]: 0.16 µM
EC50 [3, 27]: 88 nM
EC50 [3, 28]: 383 nM
EC50 [3, 29]: 674 nM
EC50 [4, 30]: 0.29 µM
EC50 [4, 31]: 0.504 µM
EC50 [4, 32]: 0.396 µM
EC50 [4, 33]: 0.144 µM
EC50 [5, 34]: 0.325 µM
EC50 [5, 35]: 0.165 µM
EC50 [5, 36]: 0.486 µM
EC50 [5, 37]: 0.123 µM
EC50 [6, 38]: 451 nM
EC50 [6, 39]: 249 nM
EC50 [6, 40]: 555 nM
EC50 [6, 41]: 141 nM
EC50 [6, 42]: 232 nM
EC50 [6, 43]: 401 nM
EC50 [6, 44]: 203 nM
EC50 [7, 45]: 308 nM
EC50 [7, 46]: 302 nM
EC50 [7, 47]: 194 nM
EC50 [7, 48]: 526 nM
EC50 [7, 49]: 430 nM
EC50 (CLK3): 31.2 nM

Cn1ncc(-c2ccc3cnc(NC(=O)c4cccc(CN5CCCC5)c4)cc3c2)c1CN1CCCCC1 [Compound 78]
EC50 (CLK2): 1.6 nM
EC50 (BT-549): 655 nM
EC50 (CAMA1): 561 nM
EC50 (DU4475): 381 nM
EC50 (HCC1599): 512 nM
EC50 (MCF7): 1420 nM
EC50 (MDA-MB-231-Luc): 677 nM
EC50 (T47D): 888 nM
EC50 (ZR-75-1): 711 nM
EC50 (all 50 cell lines): 610 nM
EC50 [1, 8]: 0.38 µM
EC50 [1, 9]: 0.674 µM
EC50 [1, 10]: 0.198 µM
EC50 [1, 11]: 0.499 µM
EC50 [1, 12]: 0.182 µM
EC50 [1, 13]: 0.404 µM
EC50 [2, 14]: 0.513 µM
EC50 [2, 15]: 0.099 µM
EC50 [2, 16]: 0.164 µM
EC50 [2, 17]: 0.62 µM
EC50 [2, 18]: 1.29 µM
EC50 [2, 19]: 0.177 µM
EC50 [2, 20]: 0.976 µM
EC50 [2, 21]: 0.228 µM
EC50 [2, 22]: 0.363 µM
EC50 [2, 23]: 0.522 µM
EC50 [2, 24]: 0.562 µM
EC50 [2, 25]: 0.897 µM
EC50 [2, 26]: 0.156 µM
EC50 [3, 27]: 132 nM
EC50 [3, 28]: 845 nM
EC50 [3, 29]: 1290 nM
EC50 [4, 30]: 0.672 µM
EC50 [4, 31]: 1.1 µM
EC50 [4, 32]: 0.856 µM
EC50 [4, 33]: 0.395 µM
EC50 [6, 38]: 1110 nM
EC50 [6, 39]: 627 nM
EC50 [6, 40]: 1040 nM
EC50 [6, 41]: 272 nM
EC50 [6, 42]: 818 nM
EC50 [6, 43]: 736 nM
EC50 [6, 44]: 381 nM
EC50 [7, 45]: 713 nM
EC50 [7, 46]: 674 nM
EC50 [7, 47]: 525 nM
EC50 [7, 48]: 966 nM
EC50 [7, 49]: 546 nM
EC50 (CLK3): 14.6 nM
